{
  "source": "patent US11845770B2",
  "about": "“Ascaroside derivatives and methods of use” (California Institute of Technology, priority 2019, dated 2023)",
  "assay_type_in_all_cases": "cell-based",
  "key": {"[1]": {"system": "THP1 human macrophage cells", "assay": "Stimulation of THP-1 cells, IL-6 at 6 or 36 hours post stimulation", "conditions": "THP1-derived macrophages, IFNγ + LPS, 0.1 to 500 μM, FIG. 9", "description": "Human immortalized monocytic THP-1 cells were maintained in phenol red free RPMI 1640 medium containing 10% (v/v) fetal bovine serum (FBS), 2 mM L-glutamine, penicillin (100 units/mL), streptomycin (100 μg/mL), amphotericin B (2.5 μg/mL), and 50 μM beta-mercaptoethanol (BME) at 37° C. with 5% (v/v) CO2. THP-1 cells were seeded in 1 mL of THP-1 medium (cell culture medium containing 10% (v/v) FBS, 2 mM L-glutamine, penicillin (100 units/mL), streptomycin (100 μg/mL), amphotericin B ([…]), and 50 μM BME)/well at a density of 1×10^6 cells/mL in six-well plates. Cells were differentiated by adding 10, 50, or 100 nM phorbol 12-myristate 13-acetate (PMA) to each well before incubating cells for 5.5 h at 37° C. with 5% (v/v) CO2. Without removing the media, different concentrations (either 0, 0.1, 1.0, 10, 100, 200, or 500 μM) of the compound were added to each well. Cells were stimulated, within 30 min by adding 20 ng/mL interferon gamma (IFNγ) and 100 ng/mL lipopolysaccharide (LPS) to each well. Following stimulation, the THP-1 cells were incubated for 6 or 36 hours at 37° C. with 5% (v/v) CO2. Supernatant was collected and stored at −80° C. until use.\nIL-6 released from supernatants collected at 6 or 36 hours post stimulation with IFNγ and LPS were measured using the AlphaLISA Human IL-6 detection kit."}, "human naïve T cells": {"system": "human naïve T cells", "assay": "Stimulation of blood derived naïve T cells with Der p1 (house dust mite) antigen", "conditions": "at 100 μM; human T cells, Der p1 antigen; FIG. 15", "description": "Naïve T cells from peripheral blood samples were collected and processed using MACSxpress® Whole Blood Pan T Cell Isolation Kit (Miltenyi Biotec), according to the manufacturer's protocol. Isolated naïve T cells were cultured in RPMI medium supplemented with 5% Fetal Bovine Serum (FBS) at 37° C. with 5% (v/v) CO2. T cells were seeded in 24 well plates at a density of 0.5×10^6 cells per well. The cells were pre-treated with the compounds (0, 0.1, 1.0, 10, 100 μM) for 1 hour prior to stimulation. Cells were stimulated with […] of Dermatophagoides pteronyssinus (Der p1) antigen. After 48 hours, fresh […] of Der p1 was added and continued incubating for a further 72 hours at 37° C. with 5% (v/v) CO2. Overall T cells were stimulated with […] of Der p1 antigen for 5 days before supernatants were collected and stored at −80° C. until quantitative detection assays are performed.\nHuman Interleukin-4 (IL-4), Interleukin-5 (IL-5), Interleukin-6 (IL-6), Interleukin-8 (IL-8), Interleukin-13 ([…]), Interleukin-23 (IL-23), and Interferon gamma (IFNγ) released from supernatants collected post stimulation were measured using Human Magnetic Luminex® Assay Kit. Human Transforming Growth Factor beta (TGFβ) was measured using an Enzyme-Linked Immunosorbent Assay (ELISA)-based analysis."}, "[2]": {"system": "EPC2 human esophageal keratinocytes", "assay": "Stimulation of EPC2-hTERT human esophageal keratinocytes with Poly(I:C)", "conditions": "24 hours, increasing concentrations", "description": "EPC2-hTERT (EPC2) cells were maintained in supplemented keratinocyte serum-free medium (KSFM) with 0.09 mM calcium chloride containing epidermal growth factor (5 ng/mL), bovine pituitary extract ([…]), penicillin (100 units/mL), and streptomycin ([…]) (ThermoFisher #17005042) at 37° C. with 5% (v/v) CO2. EPC2 cells were seeded in 12-well plates at 0.55×10^6 cells per well in supplemented KSFM at 37° C. with 5% (v/v) CO2 and after 6 hours the old media is removed and changed with fresh media. After overnight incubation, the old media is changed to supplemented KSFM containing 1.8 mM calcium chloride and incubated for 72 hours at 37° C. with 5% (v/v) CO2. After the old media is removed and fresh supplemented KSFM containing 1.8 mM calcium chloride is added, the cells are pre-treated with different concentrations of compounds (0, 1, 10, 100, 500, 1000 μM) for 1 hour prior to stimulation. To stimulate the cells, Poly (I:C) (Tocris #4287) is added to the wells at […] concentration without removing the media and incubated for 24 hours at 37° C. with 5% (v/v) CO2. Supernatants are collected in Eppendorf tubes, centrifuged in a microfuge at maximum speed for 10 minutes at 4° C., and the centrifuged supernatants stored at −80° C. until quantitative detection assays are performed. Human Interleukin-6 (IL-6), Monocyte Chemoattractant Protein-1 (MCP-1), and Thymic stromal lymphopoietin (TSLP) released from supernatants collected post stimulation were measured using the AlphaLISA detection kit for human IL-6, MCP-1, and TSLP, respectively."}},
  "note": "Entries after “also recorded” stand apart in the source; their conditions may differ.",
  "data": [
    {"smiles": "C[C@H](CC/C=C/C(=O)OCc1cccnc1)O[C@@H]1O[C@@H](C)[C@H](O)C[C@H]1O", "note": "[Compound 5, pyridin-3-ylmethyl (2E,6R)-6-{[(2R,3R,5R,6S)-3,5-dihydroxy-6-methyloxan-2-yl]oxy}hept-2-enoate]", "values": [
      {"measurement": "percent inhibition relative to Control of IL-6 levels secreted", "setting": "[1]", "result": "inhibited IL-6 expression in statistically significant, dose-dependent manner"}
    ]},
    {"smiles": "C[C@H](CCC(O)CC(=O)OC(C)(C)C)O[C@@H]1O[C@@H](C)[C@H](O)C[C@H]1O", "note": "(stereo partly drawn) [Compound 9, tert-butyl (6R)-6-(((2R,3R,5R,6S)-3,5-dihydroxy-6-methyltetrahydro-2H-pyran-2-yl)oxy)-3-hydroxyheptanoate]", "values": [
      {"measurement": "percent inhibition relative to Control of IL-6 levels secreted", "setting": "[1]", "result": "inhibited IL-6 expression in statistically significant, dose-dependent manner"}
    ]},
    {"smiles": "C[C@H](CC/C=C/C(=O)OCc1ccccc1)O[C@@H]1O[C@@H](C)[C@H](O)C[C@H]1O", "note": "[Compound 4, benzyl (2E,6R)-6-{[(2R,3R,5R,6S)-3,5-dihydroxy-6-methyloxan-2-yl]oxy}hept-2-enoate]", "values": [
      {"measurement": "percent inhibition relative to Stimulated of IL-6 expression", "setting": "human naïve T cells", "result": "statistically significant inhibition"},
      {"measurement": "percent inhibition relative to Stimulated of IL-8 expression", "setting": "human naïve T cells", "result": "statistically significant inhibition"},
      {"measurement": "percent inhibition relative to Stimulated of TNFα expression", "setting": "human naïve T cells", "result": "statistically significant inhibition"},
      {"measurement": "percent inhibition relative to Stimulated of TSLP expression", "setting": "[2]; FIG. 19A", "result": "statistically significant inhibition; also recorded: completely inhibited"},
      {"measurement": "percent inhibition relative to Stimulated of IL-6 expression", "setting": "[2]; FIG. 19B", "result": "inhibited IL-6 expression in statistically significant, dose-dependent manner"},
      {"measurement": "percent inhibition relative to Stimulated of MCP-1 expression", "setting": "[2]; FIG. 19C", "result": "inhibited MCP-1 expression in statistically significant manner; also recorded: only showed inhibition at the highest 100 μM concentration"}
    ]},
    {"smiles": "CC(C)OC(=O)/C=C/CC[C@@H](C)O[C@@H]1O[C@@H](C)[C@H](O)C[C@H]1O", "note": "[Compound 8, isopropyl (R,E)-6-(((2R,3R,5R,6S)-3,5-dihydroxy-6-methyltetrahydro-2H-pyran-2-yl)oxy)hept-2-enoate]", "values": [
      {"measurement": "percent inhibition relative to Control of IL-6 levels secreted", "setting": "[1]", "result": "inhibited IL-6 expression in statistically significant, dose-dependent manner"}
    ]}
  ]
}
